Legend:
[1] = test system: PD-L1; experiment: Immunofluorescence densitometry of PD-L1 expression in rat C6 glioma cells; type: cell-based; conditions: for percent inhibition of PD-L1 expression: 24 h, compared to controls; for effect on PD-L1 expression (in words): all concentrations tested
Procedure: (§1) Immunofluorescence studies were utilized to explore the effects of an active composition including Type-A polymers on PD-L1 proteins. Purified cinnamtannin B1 and cinnamtannin D1 are obtained from Planta Analytica (New Milford, Conn.). A water extract of cinnamon with at least 3% by weight type-A polymers was obtained from IN Ingredients sold as CINNULIN PF. Each dried material was solvated in DMSO and stored at −20° C. until use. The antibodies (anti-PD-L1) were all obtained from Santa Cruz Biotech. All other reagents used were of the highest grade available in commercial products.
(§2) C6 glioma cells (CCL-107) were purchased from American Type Culture Collection (ATCC; Manassas, Va.). Cell cultures were grown in F-12 K medium (Gibco/Invitrogen) supplemented with 10% horse serum and 2% fetal bovine serum and maintained in a humidified atmosphere containing 5% CO2 and 95% air at 37° C. Cultures were grown to 85% confluency in 75 mm flasks, and cells were subcultured by trypsinization of subconfluent cultures using 0.05% trypsin with EDTA. C6 glioma cells were seeded at a density of 0.5×10^6 cells per 35 mm dish, and cultured for two days. Cells were grown to confluence during the experimental period. Three studies were performed: 1) no other treatment of the cells; 2) treatment with LPS (10 μg/mL); and 3) treatment with TNF-α (10 ng/mL). In some studies, cells were incubated in fresh F-12K medium supplemented with either cinnamtannin D1 (at a concentration of 0 μg/ml, 5 μg/ml, 10 μg/ml, 20 μg/ml, 25 μg/ml, or 50 μg/ml) or cinnamtannin B1 (at a concentration of 0 μg/ml, 5 μg/ml, 10 μg/ml, 20 μg/ml, 25 μg/ml, or 50 μg/ml) for 24 h at 37° C. In certain treatment with LPS studies, the cells were incubated in fresh F-12 K medium supplemented with 10 μg/mL LPS or incubated in fresh F-12 K medium supplemented with 10 μg/mL LPS and cinnamtannin D1 at a concentration 10 μg/ml or 50 μg/ml (5 μg/ml and 25 μg/ml were not tested) for 24 h at 37° C. In certain treatment with TNF-α studies, the cells were incubated in fresh FK-12 medium supplemented with 10 ng/mL TNF-α and cinnamtannin D1 at a concentration 10 μg/ml, 20 μg/ml or 50 μg/ml (5 μg/ml was not tested) for 24 h at 37° C.
(§3) Cells were rinsed with ice-cold PBS and fixed with 4% paraformaldehyde for 10 min at room temperature, followed by permeabilization with 0.3% Triton x-100 for 10 min. After being washed with PBS three times, cells were incubated for 1 h in PBS containing 10% normal goat serum blocking solution. The cells were subjected to immunofluorescence staining with the specific antibodies (Rat C6 glioma cells studied for PD-L1 (Santa Cruz Biotech); human macrophage-like THP-1 cells analyzed for PD-1 (Santa Cruz Biotech)) overnight at 4° C. The cells were then washed with cold PBS three times for 3 min each, and incubated with Alexa-labeled secondary antibodies (Invitrogen) at room temperature for 1 h. The cells were examined by fluorescence microscopy (a Nikon TE2000-S microscope, Nikon, Tokyo, Japan). For cell counts, five to ten random fields with approximately similar density of cells in each field were selected for analysis in each plate. Fluorescence intensities (with pixel values exceeding five times the standard deviation of the background) from these images were semi-quantitatively analyzed by densitometry (ImageJ software, NIH Image).

[2] = test system: PD-1; experiment: Immunofluorescence densitometry of PDCD-1 (PD-1) expression in human macrophage-like THP-1 cells; type: cell-based; conditions: 20 μg/ml, 24 hours at 37° C., compared to controls
[3] = test system: PD-1; experiment: as above; type: cell-based; conditions: for percent increase of PDCD-1 expression: 24 hours at 37° C., compared to controls; for effect on PDCD-1 expression (in words): all concentrations tested, relative to control
Procedure: In the present study, human macrophage-like THP-1 cells were used to determine the effects of active agents.
Immunofluorescence studies were utilized to explore the effects of an active composition including Type-A polymers on PD-L1 and PD-1 proteins. Doubly linked procyanidin type-A polymers (3% by weight) in a dried extract of bark from C. burmanni was prepared as described (Anderson et al., J. Agric. Food Chem. 2004; 52:65-70), or provided by IN Ingredients Inc. (formerly Integrity Nutraceuticals, Columbia, Tenn., USA) as CINNULIN PF. The dried extract composition was solvated in DMSO and stored at −20° C. until use. The antibodies (anti-PD-L1, anti-PD-1) were all obtained from Santa Cruz Biotech. All other reagents used were of the highest grade available in commercial products.
(§4) Human monocytic THP-1 cells were purchased from ATCC, Manassas, Va. and were maintained in RPMI culture medium supplemented with 10% heat inactivated fetal bovine serum, 10 mM Hepes, 0.1 mM MEM non-essential amino acids, 1 mM sodium pyruvate, and […] penicillin/streptomycin in an atmosphere containing 5% CO2 and 95% air at 37° C. THP-1 monocytes were differentiated in macrophages by 48 hour incubation with phorbol 12-myristate 13-acetate (PMA, Sigma, P8139) in RPMI media at a concentration of 10 ng/mL. Cells were incubated with or without the treatment compounds at dosages indicated below at 37° C. for 24 hours. In certain treatment with LPS studies, the cells were incubated in fresh F-12 K medium supplemented with 10 μg/mL LPS and the type-A polymers at a concentration (from 3% extract) of 0 μg/ml, 5 μg/ml, 10 μg/ml, 25 μg/ml, or 50 μg/ml for 24 h at 37° C. In other treatment with LPS studies, the cells were incubated in fresh F-12 K medium supplemented with 10 μg/mL LPS and cinnamtannin D-1 at a concentration 2.5 μg/ml, 5 μg/ml, 10 μg/ml or 25 μg/ml for 24 h at 37° C.
as §3, with “(human” for “(Rat C6 glioma cells studied for PD-L1 (Santa Cruz Biotech); human”

[4] = test system: PD-L1; experiment: TNF-α-induced overexpression of PD-L1 in rat C6 glioma cells (immunofluorescence densitometry); type: cell-based; conditions: TNF-α 10 ng/ml; for percent inhibition of TNF-α-induced overexpression of PD-L1: 24 h, rat C6 glioma cells
Procedure: as §1
as §2, with “In certain treatment with TNF-α studies, the cells were incubated in fresh FK-12 medium supplemented with 10 ng/mL TNF-α and cinnamtannin D1 at a concentration 10 μg/ml, 20 μg/ml or 50 μg/ml (5 μg/ml was not tested) for 24 h at 37° C.” left out
(§5) Cells were rinsed with ice-cold PBS and fixed with 4% paraformaldehyde for 10 min at room temperature, followed by permeabilization with 0.3% Triton x-100 for 10 min. […] The cells were subjected to immunofluorescence staining with the specific antibodies (Rat C6 glioma cells studied for PD-L1 (Santa Cruz Biotech); human macrophage-like THP-1 cells analyzed for PD-1 (Santa Cruz Biotech)) overnight at 4° C. […] The cells were examined by fluorescence microscopy (a Nikon TE2000-S microscope, Nikon, Tokyo, Japan). […] Fluorescence intensities (with pixel values exceeding five times the standard deviation of the background) from these images were semi-quantitatively analyzed by densitometry (ImageJ software, NIH Image).

[5] = test system: PD-1; experiment: Immunofluorescence densitometry of LPS-induced PDCD-1 down expression in human macrophage-like THP-1 cells; type: cell-based; conditions: LPS 10 μg/ml; for percent inhibition of LPS-induced PDCD-1 down expression: 24 h
Procedure: as §4
as §3, with “(human” for “(Rat C6 glioma cells studied for PD-L1 (Santa Cruz Biotech); human”

[6] = test system: PD-L1; experiment: LPS-induced overexpression of PD-L1 in rat C6 glioma cells (immunofluorescence densitometry); type: cell-based; conditions: LPS 10 μg/ml; for percent inhibition of LPS-induced overexpression of PD-L1: 24 h, rat C6 glioma cells
Procedure: as §1
C6 glioma cells (CCL-107) were purchased from American Type Culture Collection (ATCC; Manassas, Va.). Cell cultures were grown in F-12 K medium (Gibco/Invitrogen) supplemented with 10% horse serum and 2% fetal bovine serum and maintained in a humidified atmosphere containing 5% CO2 and 95% air at 37° C. Cultures were grown to 85% confluency in 75 mm flasks, and cells were subcultured by trypsinization of subconfluent cultures using 0.05% trypsin with EDTA. C6 glioma cells were seeded at a density of 0.5×10^6 cells per 35 mm dish, and cultured for two days. Cells were grown to confluence during the experimental period. Three studies were performed: 1) no other treatment of the cells; 2) treatment with LPS (10 μg/mL); and 3) treatment with TNF-α (10 ng/mL). […]
as §5

[7] = test system: PD-L1; conditions: treatment for metastatic melanoma (Laubli et al. 2015); cited from earlier work

| Compound | percent inhibition of PD-L1 expression ([1]; 5 μg/ml) [%] | percent inhibition of PD-L1 expression ([1]; 10 μg/ml) [%] | percent inhibition of PD-L1 expression ([1]; 25 μg/ml) [%] | percent inhibition of PD-L1 expression ([1]; 50 μg/ml) [%] | effect on PD-L1 expression (in words) [1] | percent increase of PDCD-1 expression [2] [%] | percent increase of PDCD-1 expression ([3]; 2.5 μg/ml) [%] | percent increase of PDCD-1 expression ([3]; 5 μg/ml) [%] | percent increase of PDCD-1 expression ([3]; 10 μg/ml) [%] | effect on PDCD-1 expression (in words) [3] | percent increase of PDCD-1 expression ([3]; 50 μg/ml) [%] | other results |
| --- | --- | --- | --- | --- | --- | --- | --- | --- | --- | --- | --- | --- |
| Oc1cc(O)c2c(c1)O[C@@]1(c3ccc(O)c(O)c3)Oc3cc(O)c4c(c3[C@@H]2C1O)OC(c1ccc(O)c(O)c1)[C@H](O)C4c1c(O)cc(O)c2c1O[C@H](c1ccc(O)c(O)c1)[C@H](O)C2 (some centres unmarked) [cinnamtannin B-1, cinnamtannin B1] | 35.7 | 60.8 | 54.9 | 41.9 | significantly inhibited | 62 | 21 | 42 | 83 | significantly enhanced | – | – |
| Oc1cc(O)c2c(c1)O[C@@]1(c3ccc(O)c(O)c3)Oc3cc(O)c4c(c3[C@@H]2[C@H]1O)O[C@H](c1ccc(O)c(O)c1)[C@H](O)[C@H]4c1c(O)cc(O)c2c1O[C@H](c1ccc(O)c(O)c1)[C@@H](O)C2 [cinnamtannin D-1, (2R,3R,4S,8S,14R, 15R)-2,8-bis(3,4-dihydroxyphenyl)-4-[(2R,3S)-2-(3,4-dihydroxyphenyl)-3,5,7-trihydroxy-3,4-dihydro-2H-1-benzopyran-8-yl]-3,4-dihydro-2H,8H,14H-8,14-methano-1,7,9-trioxabenzo[6,7]cycloocta[1,2-a]naphthalene-3,5,11,13,15-pentol] | 39.9 | 66.8 | 58.1 | 43.6 | significantly inhibited | 71 | 18 | 45 | 87 | significantly enhanced | – | percent inhibition of TNF-α-induced overexpression of PD-L1 ([4]; 10 μg/ml): 32.0%; percent inhibition of TNF-α-induced overexpression of PD-L1 ([4]; 20 μg/ml): 42.2%; percent inhibition of TNF-α-induced overexpression of PD-L1 ([4]; 50 μg/ml): 43.9%; effect on TNF-α-induced overexpression of PD-L1 (in words) ([4]; all concentrations tested (10, 20, 50 μg/ml)): significantly inhibited; percent inhibition of LPS-induced PDCD-1 down expression ([5]; 2.5 μg/ml): 42%; percent inhibition of LPS-induced PDCD-1 down expression ([5]; 5 μg/ml): 98%; percent inhibition of LPS-induced PDCD-1 down expression ([5]; 10 μg/ml): 81%; percent inhibition of LPS-induced PDCD-1 down expression ([5]; 25 μg/ml): 48%; effect on LPS-induced PD-1 down-regulation (in words) ([5]; all concentrations tested): significantly improved; percent inhibition of LPS-induced overexpression of PD-L1 ([6]; 10 μg/ml): 48.9%; percent inhibition of LPS-induced overexpression of PD-L1 ([6]; 50 μg/ml): 53.0%; effect on LPS-induced overexpression of PD-L1 (in words) ([6]; all concentrations tested): significantly inhibited |
| O=C(O)c1cc(O)c(O)c(O)c1 [garlic acid] | – | – | – | – | – | 71 | – | – | 47 | significantly enhanced | 52 | – |
| O=c1c(O)c(-c2ccc(O)c(O)c2)oc2cc(O)cc(O)c12 [quercetin] | – | – | – | – | – | 78 | – | – | 33 | significantly enhanced | 57 | – |
| C[C@@H]1O[C@@H](OC[C@H]2O[C@@H](Oc3c(-c4ccc(O)c(O)c4)oc4cc(O)cc(O)c4c3=O)[C@H](O)[C@@H](O)[C@@H]2O)[C@H](O)[C@H](O)[C@H]1O [rutin] | – | – | – | – | – | 48 | – | – | 17 | – | 43 | – |
| pembrolizumab: antibody therapeutic cited for targeted inhibition of PD-L1 with cardiac side effect | – | – | – | – | – | – | – | – | – | – | – | cardiac side effect associated with treatment [7]: acute heart failure due to autoimmune myocarditis |
